# In US20080119501A1, “IMMEDIATE RELEASE OXYMORPHONE COMPOSITIONS AND METHODS OF USING SAME” (priority 2006, published 2008):
# Assay: Single- and multiple-dose pharmacokinetic and dose-proportionality study of oxymorphone IR tablets in healthy subjects
# Conditions: for AUC∞, mean: n=23; for AUC(0-inf) / concentration at 6 day / concentration at 7 day / concentration at 8 day / Cmax / half-life: both, human, oral
# [1] = single dose oxymorphone IR 5 mg
# [2] = single dose oxymorphone IR 5 mg, plasma
# [3] = single dose oxymorphone IR 10 mg
# [4] = single dose oxymorphone IR 10 mg, plasma
# [5] = single dose oxymorphone IR 20 mg
# [6] = single dose oxymorphone IR 20 mg, plasma
# [7] = steady state, oxymorphone IR 5 mg q6 h
# [8] = steady state, oxymorphone IR 10 mg q6 h
# [9] = steady state, oxymorphone IR 20 mg q6 h
compound,measurement,setting,value
CN1CC[C@]23c4c5ccc(O)c4O[C@H]2C(O)CC[C@@]3(O)[C@H]1C5 (stereo partly drawn) [6-OH-oxymorphone],"t1/2 (terminal elimination half-life), mean",[1],7.27 h
same,"terminal elimination rate constant, mean",[1],0.1661 h⁻¹
same,"tmax, median",[1],0.50 h
same,"Cmax, mean",[2],095 ng/mL
same,"AUC∞, mean",[2],4.02 ng·h/mL
same,"t1/2 (terminal elimination half-life), mean",[3],13.72 h
same,"terminal elimination rate constant, mean",[3],0.0752 h⁻¹
same,"tmax, median",[3],0.50 h
same,"Cmax, mean",[4],1.62 ng/mL
same,"AUC∞, mean",[4],9.90 ng·h/mL
same,"t1/2 (terminal elimination half-life), mean",[5],18.35 h
same,"terminal elimination rate constant, mean",[5],0.0414 h⁻¹
same,"tmax, median",[5],0.50 h
same,"Cmax, mean",[6],3.57 ng/mL
same,"AUC∞, mean",[6],24.37 ng·h/mL
same,deviation from a linear dose response,single-dose administration,approximately 20%
same,"AUCSS, mean",[7],4.98 ng·h/mL
same,"Cavg (average plasma concentration), mean",[7],0.83 ng/mL
same,"Cmax, mean",[7],1.55 ng/mL
same,"Cmin, mean",[7],0.70 ng/mL
same,"tmax, median",[7],0.50 h
same,"AUCSS, mean",[8],10.77 ng·h/mL
same,"Cavg (average plasma concentration), mean",[8],1.80 ng/mL
same,"Cmax, mean",[8],3.12 ng/mL
same,"Cmin, mean",[8],1.52 ng/mL
same,"tmax, median",[8],0.50 h
same,"AUCSS, mean",[9],23.68 ng·h/mL
same,"Cavg (average plasma concentration), mean",[9],3.95 ng/mL
same,"Cmax, mean",[9],6.94 ng/mL
same,"Cmin, mean",[9],3.34 ng/mL
same,"tmax, median",[9],0.50 h
same,deviation from a linear dose response,steady-state concentrations,approximately 10%
"CN1CC[C@]23c4c5ccc(O)c4O[C@H]2C(=O)CC[C@@]3(O)[C@H]1C5 [Oxymorphone, oxymorphone]","dose proportionality of dose-normalised AUC∞, AUCss or Cmax","5-20 mg, single dose and steady state",linear and dose-proportional pharmacokinetics
same,AUC(0-inf),"plasma, 5 mg",4.48 ng·h/mL
same,concentration at 6 day,"plasma, 5 mg",0.47 ng/mL
same,concentration at 7 day,"plasma, 5 mg",0.5 ng/mL
same,concentration at 8 day,"plasma, 5 mg",0.49 ng/mL
same,Cmax,"plasma, 5 mg, mean, single dose oxymorphone IR 5 mg",1.1 ng/mL
same,Cmax,"plasma, 5 mg, mean, steady state, oxymorphone IR 5 mg q6 h",1.73 ng/mL
same,half-life,"plasma, 5 mg, t1/2 (terminal elimination half-life), mean, single dose oxymorphone IR 5 mg",7.25 h
same,AUC(0-inf),"plasma, 10 mg",9.1 ng·h/mL
same,concentration at 6 day,"plasma, 10 mg",0.98 ng/mL
same,concentration at 7 day,"plasma, 10 mg",0.99 ng/mL
same,concentration at 8 day,"plasma, 10 mg",1.16 ng/mL
same,Cmax,"plasma, 10 mg, mean, single dose oxymorphone IR 10 mg",1.93 ng/mL
same,Cmax,"plasma, 10 mg, mean, steady state, oxymorphone IR 10 mg q6 h",3.51 ng/mL
same,half-life,"plasma, 10 mg, t1/2 (terminal elimination half-life), mean, single dose oxymorphone IR 10 mg",7.78 h
same,AUC(0-inf),"plasma, 20 mg",20.1 ng·h/mL
same,concentration at 6 day,"plasma, 20 mg",2.05 ng/mL
same,concentration at 7 day,"plasma, 20 mg",2.31 ng/mL
same,concentration at 8 day,"plasma, 20 mg",2.47 ng/mL
same,Cmax,"plasma, 20 mg, mean, single dose oxymorphone IR 20 mg",4.39 ng/mL
same,Cmax,"plasma, 20 mg, mean, steady state, oxymorphone IR 20 mg q6 h",7.33 ng/mL
same,half-life,"plasma, 20 mg, elimination half-life (t1/2) across doses, single dose, oxymorphone IR 5, 10 and 20 mg",7.3 to 9.4 h
same,half-life,"plasma, 20 mg, t1/2 (terminal elimination half-life), mean, single dose oxymorphone IR 20 mg",9.43 h
same,time to achieve steady-state conditions,"dosing every 6 hours, from trough concentrations",3 to 4 days
same,"CL/F (oral clearance), mean",[1],23.53 L/min
same,"Ln-CL/F, geometric least square mean (standard error), normalised to 10 mg",[1],20.61 (1.05) L/min
same,"terminal elimination rate constant, mean",[1],0.1534 h⁻¹
same,"CL/F (oral clearance), mean",[3],21.42 L/min
same,"Ln-CL/F, geometric least square mean (standard error), normalised to 10 mg",[3],19.62 (1.05) L/min
same,"terminal elimination rate constant, mean",[3],0.1257 h⁻¹
same,"CL/F (oral clearance), mean",[5],18.21 L/min
same,"Ln-CL/F, geometric least square mean (standard error), normalised to 10 mg",[5],17.27 (1.05) L/min
same,"terminal elimination rate constant, mean",[5],0.0835 h⁻¹
same,"Ln-CL/F, geometric least square mean (standard error), normalised to 10 mg","steady state, every 6 hours, oxymorphone IR 5 mg",18.70 (1.03) L/min
same,"Ln-CL/F, geometric least square mean (standard error), normalised to 10 mg","steady state, every 6 hours, oxymorphone IR 10 mg",17.08 (1.03) L/min
same,"Ln-CL/F, geometric least square mean (standard error), normalised to 10 mg","steady state, every 6 hours, oxymorphone IR 20 mg",16.72 (1.03) L/min
same,"C/LF (oral clearance), mean",[7],19.23 L/min
same,"Cavg (average plasma concentration), mean",[7],0.77 ng/mL
same,"Cmin, mean",[7],0.49 ng/mL
same,"C/LF (oral clearance), mean",[8],17.63 L/min
same,"Cavg (average plasma concentration), mean",[8],1.70 ng/mL
same,"Cmin, mean",[8],1.16 ng/mL
same,"tmax, median",[8],0.50 h
same,"C/LF (oral clearance), mean",[9],17.68 L/min
same,"Cavg (average plasma concentration), mean",[9],3.52 ng/mL
same,"Cmin, mean",[9],2.47 ng/mL
"CN1CC[C@]23c4c5ccc(O[C@@H]6O[C@H](C(=O)O)[C@@H](O)[C@H](O)[C@H]6O)c4O[C@H]2C(=O)CC[C@@]3(O)[C@H]1C5 [Oxymorphone-3-glucuronide, oxymorphone-3-glucuronide]","t1/2 (terminal elimination half-life), mean",[1],8.48 h
same,"terminal elimination rate constant, mean",[1],0.0936 h⁻¹
same,"tmax, median",[1],1.00 h
same,"Cmax, mean",[2],134.24 ng/mL
same,"AUC∞, mean",[2],650.03 ng·h/mL
same,"t1/2 (terminal elimination half-life), mean",[3],9.15 h
same,"terminal elimination rate constant, mean",[3],0.0805 h⁻¹
same,"tmax, median",[3],1.00 h
same,"Cmax, mean",[4],265.78 ng/mL
same,"AUC∞, mean",[4],1322.72 ng·h/mL
same,"t1/2 (terminal elimination half-life), mean",[5],9.67 h
same,"terminal elimination rate constant, mean",[5],0.0763 h⁻¹
same,"tmax, median",[5],1.00 h
same,"Cmax, mean",[6],516.26 ng/mL
same,"AUC∞, mean",[6],2672.40 ng·h/mL
same,"AUCSS, mean",[7],618.77 ng·h/mL
same,"Cavg (average plasma concentration), mean",[7],103.13 ng/mL
same,"Cmax, mean",[7],180.25 ng/mL
same,"Cmin, mean",[7],59.67 ng/mL
same,"tmax, median",[7],1.00 h
same,"AUCSS, mean",[8],1321.37 ng·h/mL
same,"Cavg (average plasma concentration), mean",[8],220.23 ng/mL
same,"Cmax, mean",[8],376.25 ng/mL
same,"Cmin, mean",[8],136.77 ng/mL
same,"tmax, median",[8],1.00 h
same,"AUCSS, mean",[9],2557.29 ng·h/mL
same,"Cavg (average plasma concentration), mean",[9],426.22 ng/mL
same,"Cmax, mean",[9],722.24 ng/mL
same,"Cmin, mean",[9],272.54 ng/mL
same,"tmax, median",[9],1.00 h
